The values that follow come from patent US8557816B2, “Aurora kinase modulators and method of use” (Amgen Inc., priority 2007, dated 2013).

One assay has as its target T1, AuroraA-TPX2 (Homo sapiens, UniProt O14965).
T1 construct: 20 μL of AuroraA-TPX2 KD GST for a final volume of about 41 μL; GST
T1 sequence (O14965 133-383 limits assumed): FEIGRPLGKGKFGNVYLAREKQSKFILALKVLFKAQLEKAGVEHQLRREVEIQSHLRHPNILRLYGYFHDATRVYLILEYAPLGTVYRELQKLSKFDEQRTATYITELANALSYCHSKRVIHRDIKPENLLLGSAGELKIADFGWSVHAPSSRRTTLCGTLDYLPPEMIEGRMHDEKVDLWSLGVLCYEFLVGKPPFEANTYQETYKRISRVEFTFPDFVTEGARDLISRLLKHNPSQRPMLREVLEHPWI
T1 sequence (Q9ULW0 1-43 partner limits assumed): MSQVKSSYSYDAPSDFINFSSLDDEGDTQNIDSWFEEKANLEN
Nature of the assay: AuroraA-TPX2 Homogeneous Time Resolved Fluorescent (HTRF) kinase assay. In kind it is biochemical. Particulars: average; read-out: AurA_IC50_IP (uM Avg). Here is the method:
AuroraA-TPX2-Homogeneous Time Resolved Fluorescent (HTRF) Kinase Assay:
The Aurora-A HTRF assay begins with Aurora-A in the presence of ATP phosphorylating the biotinylated peptide PLK. The reaction incubates for about 120 min. Detection reagents are added to quench the reaction. These agents stop the reaction by diluting out the enzyme and chelating the metals due to the presence of EDTA. After addition, the assay is incubated overnight to allow the detection reagents to equilibrate.
The AuroraA HTRF assay comprises 1 μL of compound in 100% DMSO, 20 μL of ATP and biotinylated PLK, and 20 μL of AuroraA-TPX2 KD GST for a final volume of about 41 μL. The final concentration of PLK is about 1 μM. […] Buffer conditions are as follows: 60 mM HEPES pH 7.5, 25 mM NaCl, 10 mM MgCl, 2 mM DTT, 0.05% BSA.
The assay is quenched and stopped with 160 μL of detection reagent. Detection reagents are as follows: Buffer made of 50 mM Tris, pH 7.5, 100 mM NaCl, 3 mM EDTA, 0.05% BSA, 0.1% Tween20. Added to this buffer prior to reading is Steptavidin allophycocyanin (SA-APC) at a final conc in the assay of 0.0005 mg/mL, and europilated anti-phosphoPLK Ab (Eu-anti-PLK) at a final conc of 0.02 nM.
The assay plate is read in either a Discovery or a RubyStar. The eu-anti-PLK is excited at 320 nm and emits at 615 nm to excite the SA-APC which in turn emits at 655 nm.
On the technique in general: TR-FRET usually uses a lanthanide donor and a delayed reading to cut background.

The target in another assay is T2, AuroraB (Homo sapiens, UniProt Q96GD4).
T2 construct: 20 μL of AuroraB FL H is for a final volume of 41 μL; His
Briefly: AuroraB Homogeneous Time Resolved Fluorescent (HTRF) kinase assay. The format is biochemical. Particulars: average; read-out: AurB_IC50_IP (uM Avg). Here is the method: AuroraB-Homogeneous Time Resolved Fluorescent (HTRF) Kinase Assay:
The AuroraB HTRF assay begins with AuroraB in the presence of ATP phosphorylating the biotinylated peptide Histone H3. The reaction incubates for about 90 min. the reaction is quenched by addition of detection reagents, which stop the reaction by diluting out the enzyme and chelating the metals due to the presence of EDTA. After addition, the assay is incubated for about 60 min to allow detection reagents to equilibrate.
The AuroraB HTRF assay comprises 1 μL of compound in 100% DMSO, 20 μL of ATP and biotinylated Histone H3, and 20 μL of AuroraB FL H is for a final volume of 41 μL. The final concentration of Histone H3 is 0.1 μM. […] Buffer conditions are as follows: 50 mM HEPES pH 7.5, 5 mM NaCl, 0.5 mM MgCl, 0.5 mM MnCl, 2 mM DTT, 0.05% BSA.
The assay is quenched and stopped with 160 μL of detection reagent. Detection reagents are as follows: Buffer made of 50 mM Tris, pH 7.5, 100 mM NaCl, 3 mM EDTA, 0.05% BSA, 0.1% Tween20. Added to this buffer prior to reading is Steptavidin allophycocyanin (SA-APC) at a final conc in the assay of 0.001 mg/mL, and europilated anti-phosphoHistoneH3 Ab (Eu-anti-HisH3) at a final conc of 0.064 nM.
The assay plate is read in either a Discovery or a RubyStar. The eu-anti-HisH3 is excited at 320 nm and emits at 615 nm to excite the SA-APC which in turn emits at 655 nm.

T2 sequence (Q96GD4 whole entry): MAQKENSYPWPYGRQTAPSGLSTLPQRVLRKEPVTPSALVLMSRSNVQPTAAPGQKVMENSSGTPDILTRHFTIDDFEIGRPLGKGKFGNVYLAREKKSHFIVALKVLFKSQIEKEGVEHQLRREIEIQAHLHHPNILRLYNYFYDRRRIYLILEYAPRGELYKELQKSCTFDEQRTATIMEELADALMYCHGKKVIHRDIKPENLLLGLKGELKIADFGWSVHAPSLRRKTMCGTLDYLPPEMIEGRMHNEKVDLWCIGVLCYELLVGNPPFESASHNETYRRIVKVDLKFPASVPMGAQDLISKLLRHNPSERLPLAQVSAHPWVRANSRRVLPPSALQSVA

With `COc1cnc2c(Oc3ccc(Nc4nnc(-c5ccc(C)nc5)c5ccccc45)cc3)ccnc2c1` [compound 268, N-(4-((7-(methyloxy)-1,5-naphthyridin-4-yl)oxy)phenyl)-4-(6-methyl-3-pyridinyl)-1-phthalazinamine], the IC50 was 0.064 µM on AuroraA-TPX2 and 0.003 µM on AuroraB.
As to `Brc1ccc2c(Oc3ccc(Nc4nnc(-c5ccccc5)c5ccccc45)cc3)ccnc2c1` [compound 133, N-(4-((7-bromo-4-quinolinyl)oxy)phenyl)-4-phenyl-1-phthalazinamine], the IC50 came to 0.494 µM on AuroraA-TPX2 and 0.028 µM on AuroraB.
The matching figures for `CCc1cc(-c2ccc(C)cc2)nnc1Nc1ccc(Nc2ccnc3cc(OC)cnc23)cc1` [compound 595]: 0.102 µM and 0.023 µM.
For `Cc1csc(-c2nnc(Nc3ccc(Sc4ccnc5ccn(C(C)C)c45)cc3)c3ccccc23)c1` [compound 472, N-(4-((1-(1-methylethyl)-1H-pyrrolo[3,2-b]pyridin-7-yl)thio)phenyl)-4-(4-methyl-2-thienyl)-1-phthalazinamine], in that order: 0.064 µM and 0.099 µM.
In the case of `COc1cnnc(Nc2ccc(Oc3ccnc4cc(OC)cnc34)cc2)c1` [compound 456], the IC50 at AuroraA-TPX2 was 1 µM; on AuroraB, 0.058 µM.
Consider `COc1cnc2c(Oc3ccc(Nc4nnc(-c5ccc6c(c5)OC(F)(F)O6)c5ccccc45)cc3)ccnc2c1` [compound 291, 4-(2,2-difluoro-1,3-benzodioxol-5-yl)-N-(4-((7-(methyloxy)-1,5-naphthyridin-4-yl)oxy)phenyl)-1-phthalazinamine], for which the IC50 at AuroraA-TPX2 amounted to 0.031 µM; on AuroraB, 0.01 µM.
Consider `c1ccc(-c2nnc(Nc3ccc(Oc4ccnc5ccsc45)cc3)c3ccccc23)cc1` [compound 251, 4-phenyl-N-(4-(thieno[3,2-b]pyridin-7-yloxy)phenyl)-1-phthalazinamine], for which the IC50 on AuroraA-TPX2 came to 0.376 µM; on AuroraB, 0.004 µM.
In the case of `Clc1ccc(-c2nnc(Nc3ccc(Sc4ccnc5[nH]ncc45)cc3)c3ccccc23)cc1` [compound 359, N-(4-(1H-pyrazolo[3,4-b]pyridin-4-ylthio)phenyl)-4-(4-chlorophenyl)phthalazin-1-amine], the IC50 on AuroraA-TPX2 was found to be 0.012 µM; on AuroraB it was 0.017 µM.
Regarding `Clc1ccc(-c2nnc(Nc3ccc(Oc4ccnc5ccoc45)cc3)c3ccccc23)cc1` [compound 483], the IC50 amounted to 0.583 µM on AuroraA-TPX2 and 0.013 µM on AuroraB.
The matching figures for `COc1cnc2c(Oc3ccc(Nc4nnc(-c5cc(Cl)cs5)c5ccccc45)cc3)ccnc2c1` [compound 316, 4-(4-chloro-2-thienyl)-N-(4-((7-(methyloxy)-1,5-naphthyridin-4-yl)oxy)phenyl)-1-phthalazinamine]: 0.014 µM and 0.023 µM.
As to `CNC(=O)c1cc(Oc2ccc(Nc3nnc(-c4ccc(Cl)cc4)c4ccccc34)cc2)ccn1` [compound 361, 4-(4-(4-(4-chlorophenyl)phthalazin-1-ylamino)phenoxy)-N-methylpicolinamide], the values for the IC50 on AuroraA-TPX2 and on AuroraB were 0.245 µM and 0.173 µM, respectively.
As to `COc1cc2nccc(Oc3ccc(Nc4nnc(-c5cccc(COC(C)=O)n5)c5ccccc45)cc3)c2cc1OC` [compound 113, (6-(4-((4-((6,7-bis(methyloxy)-4-quinolinyl)oxy)phenyl)amino)-1-phthalazinyl)-2-pyridinyl)methyl acetate], the IC50 at AuroraA-TPX2 came out at 0.014 µM; at AuroraB, 0.011 µM.
For the compound `CCc1ccc(-c2nnc(Nc3ccc(Oc4ccnc5cc(OC)cnc45)cc3)c3ccccc23)cc1` [compound 221, 4-(4-ethylphenyl)-N-(4-((7-(methyloxy)-1,5-naphthyridin-4-yl)oxy)phenyl)-1-phthalazinamine], the IC50 was determined as 0.026 µM at AuroraA-TPX2 and 0.007 µM on AuroraB.
As for `COc1cnc2c(Sc3ccc(Nc4nnc(N5CCC(N6CCCC6)CC5)c5ccccc45)cc3)ccnc2c1` [compound 538], the IC50 on AuroraA-TPX2 was found to be 3.43 µM; at AuroraB, 0.045 µM.
In the case of `Cn1cncc1-c1cc2nccc(Oc3ccc(Nc4nnc(-c5ccccc5)c5ccccc45)cc3)c2s1` [compound 202, N-(4-((2-(1-methyl-1H-imidazol-5-yl)thieno[3,2-b]pyridin-7-yl)oxy)phenyl)-4-phenyl-1-phthalazinamine], the IC50 at AuroraA-TPX2 turned out to be 0.02 µM; on AuroraB, 0.002 µM.
For `COc1cnc2c(Sc3ccc(Nc4nnc(N5CCN6CCC[C@@H]6C5)c5ccccc45)cc3)ccnc2c1` [compound 582], in that order: 0.029 µM and 0.006 µM.
Regarding `Cc1ccc(-c2nnc(Nc3ccc(Oc4ccnc5cc(-c6cncn6C)sc45)cc3)c3ccccc23)cc1` [compound 203, N-(4-((2-(1-methyl-1H-imidazol-5-yl)thieno[3,2-b]pyridin-7-yl)oxy)phenyl)-4-(4-methylphenyl)-1-phthalazinamine], the IC50 stood at 0.008 µM at AuroraA-TPX2 and 0.002 µM on AuroraB.
On to `COc1cc2nncc(Oc3ccc(Nc4nnc(-c5ccccc5)c5ccccc45)cc3)c2cc1OC` [compound 254, N-(4-((6,7-bis(methyloxy)-4-cinnolinyl)oxy)phenyl)-4-phenyl-1-phthalazinamine], for which the results for the IC50 at AuroraA-TPX2 and at AuroraB were 1.64 µM and 0.253 µM, respectively.
On to `COc1cnc2c(Oc3ccc(Nc4nnc(-c5ccc(Cl)c(C#N)c5)c5ccccc45)cc3)ccnc2c1` [compound 154, 2-chloro-5-(4-((4-((7-(methyloxy)-1,5-naphthyridin-4-yl)oxy)phenyl)amino)-1-phthalazinyl)benzonitrile], for which the IC50 at AuroraA-TPX2 worked out at 0.018 µM; at AuroraB, 0.004 µM.
Regarding `COc1cnc2c(Oc3ccc(Nc4nnc(-c5cc(C)cs5)c5ccccc45)cc3)ccnc2c1` [compound 152, N-(4-((7-(methyloxy)-1,5-naphthyridin-4-yl)oxy)phenyl)-4-(4-methyl-2-thienyl)-1-phthalazinamine], the IC50 at AuroraA-TPX2 and at AuroraB was 0.006 µM in each case.
Turning to `COCc1cc(-c2ccccc2)nnc1Nc1ccc(Oc2ccnc3cc(OC)cnc23)cc1` [compound 593], the IC50 was 0.526 µM at AuroraA-TPX2 and 0.082 µM on AuroraB.
With `COc1cnc2c(Sc3ccc(Nc4nnc(-c5ccc6nonc6c5)c5ccccc45)cc3)ccnc2c1` [compound 504], the IC50 is 0.017 µM on AuroraA-TPX2 and 0.032 µM at AuroraB.
Consider `Cc1cc2nccc(Sc3ccc(Nc4nnc(-c5ccc(Cl)cn5)c5ccccc45)cc3)c2s1` [compound 560], for which the IC50 on AuroraA-TPX2 turned out to be 0.416 µM; at AuroraB, 0.081 µM.
The matching figures for `COc1ccc2c(Oc3ccc(Nc4nnc(-c5ccc(Cl)cc5)c5ccccc45)cc3)ccnc2c1` [compound 345, 4-(4-chlorophenyl)-N-(4-(7-methoxyquinolin-4-yloxy)phenyl)phthalazin-1-amine]: 0.04 µM and 0.024 µM.
On to `FC(F)(F)Oc1ccc2c(Oc3ccc(Nc4nnc(-c5ccc(Cl)cc5)c5ccccc45)cc3)ccnc2c1` [compound 498], for which the IC50 came to 0.183 µM on AuroraA-TPX2 and 0.165 µM at AuroraB.
Take `COc1cnc2c(Sc3ccc(Nc4nnc(N5CC(C)CC(C)C5)c5ccccc45)cc3)ccnc2c1` (stereo not shown) [compound 556]: the IC50 on AuroraA-TPX2 was 0.116 µM; on AuroraB, 0.159 µM.
